Experiments:
Squalene synthase = target: T1, Squalene synthase (Rattus norvegicus, UniProt Q02769); experiment: Inhibition of squalene synthase from rat liver microsomes
T1 sequence (Q02769 whole entry): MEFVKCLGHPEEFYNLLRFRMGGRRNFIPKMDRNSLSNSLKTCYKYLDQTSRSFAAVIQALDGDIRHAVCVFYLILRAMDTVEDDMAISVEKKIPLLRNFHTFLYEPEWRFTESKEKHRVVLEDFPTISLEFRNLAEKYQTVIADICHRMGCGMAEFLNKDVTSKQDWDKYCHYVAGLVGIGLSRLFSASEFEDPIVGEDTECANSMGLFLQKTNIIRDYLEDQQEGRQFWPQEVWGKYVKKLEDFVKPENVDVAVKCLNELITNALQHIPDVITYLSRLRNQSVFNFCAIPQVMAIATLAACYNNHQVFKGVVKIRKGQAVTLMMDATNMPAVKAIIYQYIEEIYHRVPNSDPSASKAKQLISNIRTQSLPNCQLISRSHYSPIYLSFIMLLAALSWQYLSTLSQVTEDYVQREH

[1] = target: T2, Protein farnesyltransferase (Bos taurus, UniProt P29702+P49355); experiment: Inhibition of farnesyl protein transferase from bovine brain
[2] = target: T2, Protein farnesyltransferase; experiment: Inhibition of Farnesyltransferase from bovine brain

SMILES | IC50 (Squalene synthase) | IC50 [1] | IC50 [2]
CC(C)=CCC/C(C)=C/CC/C(C)=C/CC(C(=O)NCCc1ccccc1)P(=O)(O)O (centres undefined) | 0.48 µM | 13 µM | 
CC(C)=CCC/C(C)=C/CC/C(C)=C/CC(CC(=O)N[C@@H](Cc1ccccc1)C(=O)O)P(=O)(O)O (some centres undefined) | 0.22 µM | 0.47 µM | 
CC(C)=CCC/C(C)=C/CC/C(C)=C/C(O)P(=O)(O)O (centres undefined) | 2.3 µM | 0.41 µM | 
CC(C)=CCC/C(C)=C/CC/C(C)=C/CC(C(=O)O)C(=O)NC(Cc1ccccc1)C(=O)O (centres undefined) | 2.4 µM | 37 µM | 
CC(C)=CCC/C(C)=C/CCCC(P(=O)(O)O)P(=O)(O)O [SQ-34919] |  |  | 80 µM

Other lines, results leading:

IC50 (Squalene synthase) | IC50 [1] | IC50 [2] | SMILES
1.3 µM | 0.08 µM |  | CC(C)=CCC/C(C)=C/CC/C(C)=C/CC(C(=O)N[C@@H](Cc1ccccc1)C(=O)O)P(=O)(O)O (some centres undefined)
4.2 µM | 10 µM |  | CC(C)=CCC/C(C)=C/CC/C(C)=C/CC(CCP(=O)(O)O)C(=O)N[C@@H](Cc1ccccc1)C(=O)O (some centres undefined)
1.4 µM | > 100 µM |  | COC(=O)[C@H](Cc1ccccc1)NC(=O)C(C/C=C(\C)CC/C=C(\C)CCC=C(C)C)P(=O)(O)O (some centres undefined)
0.5 µM | 0.98 µM |  | CC(C)=CCC/C(C)=C/CC/C(C)=C/CC(C(=O)N[C@H](Cc1ccccc1)C(=O)O)P(=O)(O)O (some centres undefined)
0.09 µM | 0.17 µM |  | CC(C)=CCC/C(C)=C/CC/C(C)=C/CC(CP(=O)(O)O)C(=O)N[C@@H](Cc1ccccc1)C(=O)O (some centres undefined)

From ChEMBL document CHEMBL1151490, “Inhibition of farnesyl protein transferase by new farnesyl phosphonate derivatives of phenylalanine” (Bioorg Med Chem Lett, 1996)
